Laboratory results from patent US11505581B2, “Antigens and T cell epitopes from cockroach and methods of making and using same” (La Jolla Institute for Allergy and Immunology, priority 2015, dated 2022).

Tested on: PBMC
Test: ELISPOT (IFNγ, IL-5, IL-10, IL-17, IL-21) of PBMC expanded 14 days with Bla g extract, then stimulated with peptides or peptide pools
Type: cell-based, human
Parameters: key to Average Magnitude of Response: spot forming cells (SFC) per 10^6 PBMC; Response Rate per Subject: unit not given here
Settings: non-redundant epitopes; sensitized donors
Experimental: PBMC Isolation and Cell Cultures: PBMC (peripheral blood mononuclear cells) were isolated from 450 mL (one unit) of blood by density gradient centrifugation as described and cryopreserved. For in vitro expansion of PBMC for peptide screening, cells were cultured in RPMI1640 (Omega Scientific)+5% human AB serum (Gemini Bioscience), GlutaMAX (Gibco), and penicillin/streptomycin (Omega Scientific) at 2×10^6 per mL, stimulated with 10 ug/mL Bla g extract (Greer), and incubated at 37° C. in 5% CO2. Every three days, IL-2 and IL-7 (10 U/mL) were added to the cultures. Cells were harvested for peptide screening at day 14.
ELISPOT Assays: Production of IFNγ, IL-5, IL-17, IL-10, and IL-21 (as representative of TH1, TH2, TH17, TR1, and […], respectively) in response to peptide stimulation was measured by ELISPOT as described previously. […] In brief, 1×10^5 cells per well were incubated with peptide, peptide pool, or Bla g extract (10, 5, and 10 ug/ml, respectively) on anti-lymphokine antibody coated ELISPOT plates (Millipore #MSIPS4510) for 22 hours. Subsequently, secondary anti-lymphokine antibodies were added and incubated for 2 hours, washed, and avidin-peroxidase complex added for 1 hour. Plates were washed and spots developed with 3-amino-9-ethylcarbazole (Sigma #A6926) and Vector Blue (Vector #SK-5300) for IFNγ/IL-5 and IL-10/IL-17 dual plates or TMB (Sigma #T0565) for single IL-21. Criteria for peptide pool positivity were at least 100 spot forming cells (SFC) per 10^6 PBMC, p<0.05, and stimulation index≥2. Criteria for peptide positivity were identical except with a threshold of 20 SFCs.
We synthetized overlapping peptide sets of 15 amino acids in length overlapping by 10 residues and covering the entire sequence of known Bla g Allergens, i.e. Bla g 1-7, 9 and 11, referred from hereafter collectively as BLAGA. A total of 809 BLAGA peptides were arranged in pools, encompassing on average 20 peptides.
To assess T cell reactivity, we utilized a strategy applied to the definition of epitopes from various allergen sources^15,16 utilizing in vitro stimulation with allergen extracts. Here, PBMC from each subject were stimulated in vitro with Bla g extract. After 14 days, pools of overlapping 15-mer peptides from the BLAGA were tested for responses, and positive pools deconvoluted to identify the specific epitopes. As readout, we utilized ELISPOT assays specific for IL-5, IFNγ, IL-10, IL-17 and IL-21, chosen as representative of TH2, TH1, TR1, TH17 and TFH reactivity, respectively.

Point of comparison: IRFSVRRFHPKLGDK, “Average Magnitude of Response” value 5.8. Against it:
- AAIANYHYDADENSK — higher, 26.2
- AAVAYLQSDEFETIV — lower, 3.2
- AGTWSALNSIQQFIS — higher, 15.7
- AKGMMHMIKKGANGS — higher, 18.7
- AKRFAKWALPLYNKP — higher, 12.2
- ALNSIQQFISSEMVE — lower, 4.4
- ALREKVLGLPAIKAW (listed as Blattella germanica) — higher, 77.1
- AQIQVVIHLDEQYIY — lower, 4.6
- ARYFLERLSNDLPDV — lower, 3.5
- ATDYENYAIVEGCPA — higher, 32.7
- AVLALCATDTLANED — lower, 3.0
- CATDTLANEDCFRHE — lower, 3.2
- CPTNLGTTVRASVRI — higher, 11.2
- DCGVAGFRVDAAKHM — lower, 3.9
- DENSKQKKWDPLKKE — higher, 10.3
- DKKVYRVFESTVTGR — lower, 4.4
- DPSIHVLKMVAELTH — lower, 3.4
- DRKMYWQFKMDKIQI (listed as Blattella germanica) — higher, 78.8
- DRRGEMFYYTRQQLY — lower, 3.5
- DVLDIGGLKVQKQTF — lower, 3.5
- DVLQWQTIPYTTIHN — higher, 15.9
- EAGFAKLAASDSKSL — higher, 16.0
- EIDGKQTHQSVAISR — lower, 3.8
- EMIQHYTLDQVNQHK — lower, 3.5
- ERYQLVSYNLNSRSG — lower, 3.4
- EVVKANGGYLAAGKL — lower, 4.6
- FGSTLLDVIQSGLEN — higher, 26.1
- FLLSYGEKDFEDYRF — higher, 8.5
- FQINLDFKNHNGFIR — higher, 52.0
- FRKFSNNFEFSYLLG — lower, 3.3
- FRPWWERYQLVSYNL — higher, 10.8
- FSQMYHAQLAFSTAF — lower, 3.4
- FYTEFDMENNRVGFA — higher, 11.3
- GASILTYKTSKLYKM — higher, 19.3
- GEKDFEDYRFQEGDW — higher, 12.0
- GEPIRFLLSYGEKDF — lower, 3.3
- GHSHFVSDVVLSSDG — higher, 9.6
- GIRIYVDVVLNQMSG (listed as Blattella germanica) — higher, 62.5
- GKDYILRVSQLGHTV — lower, 3.4
- GQEYTFYVIVTPYAK — lower, 3.2
- GVTPVFYNMVKQGLV — higher, 20.8
- HDDRLGFLTFCPTNL (listed as Blattella germanica) — higher, 83.1
- HGRTFSSLFQVANQY — higher, 8.4
- HHQRLFMVQSLERVV — lower, 3.1
- HMAKEDLVANQPNLK (listed as Blattella germanica) — higher, 68.8
- HTKLSSSSSITLTLP — higher, 6.2
- HYQFDSIHKFEFASK — higher, 24.4
- IAGPVSEVTALNRQI — lower, 3.3
- IDDIIAILPVDDLYA — higher, 6.6
- IHENLIVTSPFRPWW — higher, 9.3
- IQGKFGLDATAVGDE — higher, 6.9
- IRGRTKFEGNKFTID (listed as Blattella germanica) — higher, 75.5
- IRHAILAAGDLYSRR — lower, 5.5
- ISDFRAAIANYHYDA — higher, 216.2
- IVINNAGILNDEKWE — higher, 10.8
- KAAVHLLVAVKASKE — lower, 4.4
- KAHSMRNSASMDLSS — higher, 16.4
- KAIEEDLKHFNLKYE — lower, 5.7
- KAIFIKCDVTNIPEF — higher, 9.3
- KALQNAESEVAALNR — higher, 6.0
- KCHLTNIACLLHNKY — higher, 22.6
- KDDWENLEIDMIVDT — higher, 8.4
- KEFANVVRVVRHTSK — lower, 3.3
- KELVEKYGKGKAIFI — lower, 3.4
- KFEGNKFTIDYNDKG — higher, 14.2
- KFTIDYNDKGKAFSA — higher, 32.0
- KIGEYKNMIAEGIID — higher, 6.2
- KKLQFTYSESLDLDD — lower, 4.2
- KLAASDSKSLLRKYL — higher, 43.8
- KLGDKEMIQHYTLDQ — lower, 5.0
- KLYKMAVAFMLAYPY — higher, 15.8
- KNMTYVNTSLVLAFS — higher, 8.4
- KNRTTIRGRTKFEGN (listed as Blattella germanica) — higher, 81.7
- KQLKVSQIMEAARKL — lower, 4.2
- KTPVLEIDGKQTHQS (listed as Blattella germanica) — higher, 57.0
- KTPVLSVNATVVRLQ — lower, 3.2
- KVFLKNYLVGNAQFK — higher, 6.4
- KVIDLLLSLYLDQNE — lower, 3.6
- LDYLNHMAKEDLVAN — higher, 13.0
- LGHTVCLSGFMGIDL — lower, 3.2
- LIPVDQIIAIATDYL — higher, 9.8

Point of comparison: IQGKFGLDATAVGDE, “Response Rate per Subject” value 1.4. Against it:
- AAIANYHYDADENSK — higher, 11.4
- AAVAYLQSDEFETIV — the same, 1.4
- AGTWSALNSIQQFIS — higher, 7.1
- AKGMMHMIKKGANGS — higher, 2.9
- AKRFAKWALPLYNKP — the same, 1.4
- ALNSIQQFISSEMVE — higher, 4.3
- ALREKVLGLPAIKAW (listed as Blattella germanica) — higher, 12.9
- AQIQVVIHLDEQYIY — higher, 5.7
- ARYFLERLSNDLPDV — higher, 2.9
- ATDYENYAIVEGCPA — the same, 1.4
- AVLALCATDTLANED — higher, 2.9
- CATDTLANEDCFRHE — higher, 2.9
- CPTNLGTTVRASVRI — higher, 4.3
- DCGVAGFRVDAAKHM — higher, 2.9
- DENSKQKKWDPLKKE — higher, 5.7
- DKKVYRVFESTVTGR — higher, 2.9
- DPSIHVLKMVAELTH — the same, 1.4
- DRKMYWQFKMDKIQI (listed as Blattella germanica) — higher, 5.7
- DRRGEMFYYTRQQLY — the same, 1.4
- DVLDIGGLKVQKQTF — higher, 2.9
- DVLQWQTIPYTTIHN — higher, 2.9
- EAGFAKLAASDSKSL — higher, 7.1
- EIDGKQTHQSVAISR — higher, 4.3
- EMIQHYTLDQVNQHK — higher, 2.9
- ERYQLVSYNLNSRSG — the same, 1.4
- EVVKANGGYLAAGKL — higher, 5.7
- FGSTLLDVIQSGLEN — higher, 8.6
- FLLSYGEKDFEDYRF — higher, 8.6
- FQINLDFKNHNGFIR — the same, 1.4
- FRKFSNNFEFSYLLG — the same, 1.4
- FRPWWERYQLVSYNL — higher, 4.3
- FSQMYHAQLAFSTAF — higher, 2.9
- FYTEFDMENNRVGFA — higher, 2.9
- GASILTYKTSKLYKM — higher, 7.1
- GEKDFEDYRFQEGDW — higher, 8.6
- GEPIRFLLSYGEKDF — higher, 2.9
- GHSHFVSDVVLSSDG — higher, 2.9
- GIRIYVDVVLNQMSG (listed as Blattella germanica) — higher, 4.3
- GKDYILRVSQLGHTV — higher, 4.3
- GQEYTFYVIVTPYAK — higher, 2.9
- GVTPVFYNMVKQGLV — the same, 1.4
- HDDRLGFLTFCPTNL (listed as Blattella germanica) — higher, 7.1
- HGRTFSSLFQVANQY — higher, 4.3
- HHQRLFMVQSLERVV — higher, 2.9
- HMAKEDLVANQPNLK (listed as Blattella germanica) — higher, 4.3
- HTKLSSSSSITLTLP — higher, 5.7
- HYQFDSIHKFEFASK — the same, 1.4
- IAGPVSEVTALNRQI — higher, 2.9
- IDDIIAILPVDDLYA — higher, 2.9
- IHENLIVTSPFRPWW — higher, 2.9
- IRFSVRRFHPKLGDK — higher, 2.9
- IRGRTKFEGNKFTID (listed as Blattella germanica) — higher, 5.7
- IRHAILAAGDLYSRR — the same, 1.4
- ISDFRAAIANYHYDA — higher, 18.6
- IVINNAGILNDEKWE — higher, 4.3
- KAAVHLLVAVKASKE — the same, 1.4
- KAHSMRNSASMDLSS — higher, 4.3
- KAIEEDLKHFNLKYE — higher, 2.9
- KAIFIKCDVTNIPEF — higher, 7.1
- KALQNAESEVAALNR — the same, 1.4
- KCHLTNIACLLHNKY — higher, 5.7
- KDDWENLEIDMIVDT — higher, 2.9
- KEFANVVRVVRHTSK — higher, 2.9
- KELVEKYGKGKAIFI — higher, 2.9
- KFEGNKFTIDYNDKG — higher, 4.3
- KFTIDYNDKGKAFSA — higher, 11.4
- KIGEYKNMIAEGIID — the same, 1.4
- KKLQFTYSESLDLDD — higher, 2.9
- KLAASDSKSLLRKYL — higher, 7.1
- KLGDKEMIQHYTLDQ — the same, 1.4
- KLYKMAVAFMLAYPY — higher, 7.1
- KNMTYVNTSLVLAFS — higher, 2.9
- KNRTTIRGRTKFEGN (listed as Blattella germanica) — higher, 2.9
- KQLKVSQIMEAARKL — higher, 4.3
- KTPVLEIDGKQTHQS (listed as Blattella germanica) — higher, 14.3
- KTPVLSVNATVVRLQ — the same, 1.4
- KVFLKNYLVGNAQFK — the same, 1.4
- KVIDLLLSLYLDQNE — higher, 7.1
- LDYLNHMAKEDLVAN — higher, 10.0
- LGHTVCLSGFMGIDL — higher, 2.9
- LIPVDQIIAIATDYL — the same, 1.4
